Consider 1 molecule from ChEMBL document CHEMBL1126386, “-alkoxyphenol leukotriene B4 receptor antagonists: effect of a chroman carboxylic acid” (Bioorg Med Chem Lett, 1992).

For assay [1], the system named is Cavia porcellus. The experiment in a line: Compound was tested for antagonizing effect of LTB4-induced gas trapping in the guinea pig when administered intravenously. In kind it is functional. The following applies: iv.
In assay [2] the target is Leukotriene B4 receptor (Homo sapiens, UniProt Q9NPC1+Q15722). The experiment in a line: Inhibition of LTB4-induced CD11b/CD18 integrin up-regulation in human neutrophils. In kind it is functional.

Turning to `CCCc1c(OCCCOc2cc(O)c(OCC)cc2CC)ccc2c1OC(C(=O)O)CC2` (configuration not stated), in assay [1], it took a dose of 0.012 mg/kg to reach the 50% effect level (ED50). Also, the 50% inhibitory concentration (IC50) (in general, the concentration that gives 50% inhibition) in assay [2] is 195 nM.
